Experimental data reported in ChEMBL document CHEMBL1649080, “Identification of a potent Janus kinase 3 inhibitor with high selectivity within the Janus kinase family” (J Med Chem, 2011).

Key:
[1] = biological target: Tyrosine-protein kinase JAK1 (Homo sapiens, UniProt P23458)
[2] = biological target: Tyrosine-protein kinase JAK2 (Homo sapiens, UniProt O60674)
[3] = biological target: Non-receptor tyrosine-protein kinase TYK2 (Homo sapiens, UniProt P29597)
[4] = biological target: Protein kinase C alpha type (Homo sapiens, UniProt P17252); assay: Inhibition of PKCalpha
[5] = biological target: Protein kinase C theta type (Homo sapiens, UniProt Q04759); assay: Inhibition of PKCtheta
Chain of Protein kinase C theta type (Q04759 whole entry): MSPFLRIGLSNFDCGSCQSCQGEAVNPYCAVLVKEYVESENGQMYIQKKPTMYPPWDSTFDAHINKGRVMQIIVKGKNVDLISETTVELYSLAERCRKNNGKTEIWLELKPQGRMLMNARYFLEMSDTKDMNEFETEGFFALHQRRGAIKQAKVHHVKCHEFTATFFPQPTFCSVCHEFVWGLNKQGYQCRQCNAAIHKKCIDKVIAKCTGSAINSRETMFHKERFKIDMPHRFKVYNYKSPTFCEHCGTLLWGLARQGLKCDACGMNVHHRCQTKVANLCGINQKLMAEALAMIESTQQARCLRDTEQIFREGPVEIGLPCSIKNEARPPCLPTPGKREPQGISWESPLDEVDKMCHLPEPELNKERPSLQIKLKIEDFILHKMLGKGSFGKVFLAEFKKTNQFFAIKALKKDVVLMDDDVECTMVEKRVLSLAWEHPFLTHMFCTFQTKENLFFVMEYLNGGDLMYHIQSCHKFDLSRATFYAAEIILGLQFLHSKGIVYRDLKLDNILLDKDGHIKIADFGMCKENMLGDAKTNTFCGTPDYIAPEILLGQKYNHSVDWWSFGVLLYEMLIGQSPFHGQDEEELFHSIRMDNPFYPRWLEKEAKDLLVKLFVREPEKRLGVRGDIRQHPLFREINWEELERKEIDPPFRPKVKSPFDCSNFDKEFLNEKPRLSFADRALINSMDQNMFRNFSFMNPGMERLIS

[6] = biological target: Glycogen synthase kinase-3 beta (Homo sapiens, UniProt P49841); assay: Inhibition of GSK3-beta
[7] = biological target: T1, Tyrosine-protein kinase JAK3 (Mus musculus, UniProt Q62137)
T1 sequence (Q62137 whole entry): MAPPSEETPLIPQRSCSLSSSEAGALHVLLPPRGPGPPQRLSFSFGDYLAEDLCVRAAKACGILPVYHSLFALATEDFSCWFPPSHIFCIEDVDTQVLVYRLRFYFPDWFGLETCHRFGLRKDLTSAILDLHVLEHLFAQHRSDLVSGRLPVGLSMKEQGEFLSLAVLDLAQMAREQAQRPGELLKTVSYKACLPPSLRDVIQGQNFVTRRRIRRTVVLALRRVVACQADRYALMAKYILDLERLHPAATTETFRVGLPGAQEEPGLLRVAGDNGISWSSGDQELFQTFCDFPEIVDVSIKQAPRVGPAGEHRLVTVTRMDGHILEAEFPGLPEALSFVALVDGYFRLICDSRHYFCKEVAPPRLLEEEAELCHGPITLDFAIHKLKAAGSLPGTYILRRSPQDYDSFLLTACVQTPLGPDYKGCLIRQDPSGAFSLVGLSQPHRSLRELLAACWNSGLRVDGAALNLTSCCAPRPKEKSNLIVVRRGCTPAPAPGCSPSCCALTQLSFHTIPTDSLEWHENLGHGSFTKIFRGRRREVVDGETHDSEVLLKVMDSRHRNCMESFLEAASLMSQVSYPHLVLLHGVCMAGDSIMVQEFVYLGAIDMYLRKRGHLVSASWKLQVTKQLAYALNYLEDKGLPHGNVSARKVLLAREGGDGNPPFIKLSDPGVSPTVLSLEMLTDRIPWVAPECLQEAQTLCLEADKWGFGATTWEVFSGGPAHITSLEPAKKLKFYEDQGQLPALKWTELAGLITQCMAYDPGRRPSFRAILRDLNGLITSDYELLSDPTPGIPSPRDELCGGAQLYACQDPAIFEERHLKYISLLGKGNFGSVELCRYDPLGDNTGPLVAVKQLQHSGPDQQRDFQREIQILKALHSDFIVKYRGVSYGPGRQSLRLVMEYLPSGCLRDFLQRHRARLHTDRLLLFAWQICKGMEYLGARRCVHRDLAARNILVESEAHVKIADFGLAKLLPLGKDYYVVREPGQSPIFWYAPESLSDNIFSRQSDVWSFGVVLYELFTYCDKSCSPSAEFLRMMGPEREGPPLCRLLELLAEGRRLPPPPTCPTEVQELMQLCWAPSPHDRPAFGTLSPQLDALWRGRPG
Description: Inhibition of Jak3-mediated IL2-induced Stat5 phosphorylation in mouse CTLL cells by cell-based assay

Jurkat [8] = conditions: human, 0.33 µM
Description: Drug uptake in human Jurkat cells assessed as whole cell extract measured per 50000 cells at 0.33 uM in growth medium by LC-MS/MS analysis

Jurkat [9] = conditions: human, 1 µM
Description: Drug uptake in human Jurkat cells assessed as whole cell extract measured per 50000 cells at 1 uM in growth medium by LC-MS/MS analysis

Jurkat [10] = conditions: human, 3.3 µM
Description: Drug uptake in human Jurkat cells assessed as whole cell extract measured per 50000 cells at 3.3 uM in growth medium by LC-MS/MS analysis

Jurkat [11] = conditions: human, 10 µM
Description: Drug uptake in human Jurkat cells assessed as whole cell extract measured per 50000 cells at 10 uM in growth medium by LC-MS/MS analysis

CTLL [12] = conditions: mouse, 0.33 µM
Description: Drug uptake in mouse CTLL cells assessed as whole cell extract measured per 50000 cells at 0.33 uM in growth medium by LC-MS/MS analysis

CTLL [13] = conditions: mouse, 1 µM
Description: Drug uptake in mouse CTLL cells assessed as whole cell extract measured per 50000 cells at 1 uM in growth medium by LC-MS/MS analysis

CTLL [14] = conditions: mouse, 3.3 µM
Description: Drug uptake in mouse CTLL cells assessed as whole cell extract measured per 50000 cells at 3.3 uM in growth medium by LC-MS/MS analysis

CTLL [15] = conditions: mouse, 10 µM
Description: Drug uptake in mouse CTLL cells assessed as whole cell extract measured per 50000 cells at 10 uM in growth medium by LC-MS/MS analysis

Jurkat [16] = assay: cells; conditions: Homo sapiens
Description: Inhibition of antiTCR/antiCD28-stimulated IL2 production in human Jurkat cells by measuring bioluminescence

in vitro = conditions: human, Caco-2
[17] = biological target: T2, Tyrosine-protein kinase JAK3 (Homo sapiens, UniProt P52333); type: cell-based
T2 sequence (P52333 whole entry): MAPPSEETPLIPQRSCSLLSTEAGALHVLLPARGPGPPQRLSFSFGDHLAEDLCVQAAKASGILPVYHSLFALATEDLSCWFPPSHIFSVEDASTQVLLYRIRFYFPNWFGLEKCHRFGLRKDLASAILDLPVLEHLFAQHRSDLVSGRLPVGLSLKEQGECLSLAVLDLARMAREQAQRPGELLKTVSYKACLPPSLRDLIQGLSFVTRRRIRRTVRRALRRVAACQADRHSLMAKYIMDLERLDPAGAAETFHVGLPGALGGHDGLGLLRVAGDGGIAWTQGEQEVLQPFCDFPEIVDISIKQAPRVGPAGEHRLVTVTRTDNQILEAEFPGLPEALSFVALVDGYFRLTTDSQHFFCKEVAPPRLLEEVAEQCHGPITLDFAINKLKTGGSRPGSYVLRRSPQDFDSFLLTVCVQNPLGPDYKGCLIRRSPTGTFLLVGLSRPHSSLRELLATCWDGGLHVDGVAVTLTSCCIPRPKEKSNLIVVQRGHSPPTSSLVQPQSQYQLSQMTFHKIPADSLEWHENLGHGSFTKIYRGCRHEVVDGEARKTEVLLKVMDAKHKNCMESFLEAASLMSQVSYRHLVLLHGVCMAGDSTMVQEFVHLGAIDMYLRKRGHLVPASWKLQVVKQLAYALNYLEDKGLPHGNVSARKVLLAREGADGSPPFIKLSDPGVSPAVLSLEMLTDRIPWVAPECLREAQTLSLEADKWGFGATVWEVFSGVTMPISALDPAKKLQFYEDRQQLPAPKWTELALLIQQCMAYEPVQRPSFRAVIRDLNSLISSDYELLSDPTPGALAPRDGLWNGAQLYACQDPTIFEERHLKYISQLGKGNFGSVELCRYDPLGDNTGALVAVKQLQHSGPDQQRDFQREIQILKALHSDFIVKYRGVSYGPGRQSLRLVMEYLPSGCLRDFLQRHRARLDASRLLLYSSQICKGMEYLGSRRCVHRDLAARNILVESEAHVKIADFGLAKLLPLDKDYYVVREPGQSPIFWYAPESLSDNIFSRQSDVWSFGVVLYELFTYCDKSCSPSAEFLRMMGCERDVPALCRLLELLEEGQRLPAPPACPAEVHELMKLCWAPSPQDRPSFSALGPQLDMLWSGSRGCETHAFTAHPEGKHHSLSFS

Chain of Tyrosine-protein kinase JAK2 (O60674 whole entry): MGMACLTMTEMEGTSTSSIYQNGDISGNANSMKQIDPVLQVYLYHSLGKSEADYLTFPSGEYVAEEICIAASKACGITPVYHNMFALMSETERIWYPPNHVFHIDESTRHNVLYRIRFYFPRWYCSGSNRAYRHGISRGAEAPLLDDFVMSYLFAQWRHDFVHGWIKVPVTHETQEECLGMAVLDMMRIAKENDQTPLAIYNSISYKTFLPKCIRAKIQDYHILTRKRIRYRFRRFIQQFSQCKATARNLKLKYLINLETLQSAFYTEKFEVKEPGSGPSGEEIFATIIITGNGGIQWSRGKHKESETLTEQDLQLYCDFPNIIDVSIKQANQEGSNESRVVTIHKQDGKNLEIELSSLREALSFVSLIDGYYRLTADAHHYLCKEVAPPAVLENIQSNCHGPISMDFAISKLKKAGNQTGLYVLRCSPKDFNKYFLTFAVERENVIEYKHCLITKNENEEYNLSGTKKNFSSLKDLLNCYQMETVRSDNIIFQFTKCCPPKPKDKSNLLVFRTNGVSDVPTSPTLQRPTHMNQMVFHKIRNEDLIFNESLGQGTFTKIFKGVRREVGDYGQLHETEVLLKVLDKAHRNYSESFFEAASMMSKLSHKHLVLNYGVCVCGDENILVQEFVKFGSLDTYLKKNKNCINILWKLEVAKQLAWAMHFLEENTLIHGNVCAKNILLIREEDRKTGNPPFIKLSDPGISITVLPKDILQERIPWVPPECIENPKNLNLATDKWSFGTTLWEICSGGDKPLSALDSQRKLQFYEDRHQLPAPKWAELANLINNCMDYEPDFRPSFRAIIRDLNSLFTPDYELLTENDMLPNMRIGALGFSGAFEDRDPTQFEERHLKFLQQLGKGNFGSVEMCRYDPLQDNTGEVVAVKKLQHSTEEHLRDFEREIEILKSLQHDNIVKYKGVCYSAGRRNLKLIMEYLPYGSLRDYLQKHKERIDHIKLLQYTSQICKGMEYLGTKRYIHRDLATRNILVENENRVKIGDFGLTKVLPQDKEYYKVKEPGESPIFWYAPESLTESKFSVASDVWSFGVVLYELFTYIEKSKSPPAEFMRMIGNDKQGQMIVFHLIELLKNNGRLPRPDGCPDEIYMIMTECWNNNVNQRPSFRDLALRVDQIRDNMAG
Chain of Non-receptor tyrosine-protein kinase TYK2 (P29597 whole entry): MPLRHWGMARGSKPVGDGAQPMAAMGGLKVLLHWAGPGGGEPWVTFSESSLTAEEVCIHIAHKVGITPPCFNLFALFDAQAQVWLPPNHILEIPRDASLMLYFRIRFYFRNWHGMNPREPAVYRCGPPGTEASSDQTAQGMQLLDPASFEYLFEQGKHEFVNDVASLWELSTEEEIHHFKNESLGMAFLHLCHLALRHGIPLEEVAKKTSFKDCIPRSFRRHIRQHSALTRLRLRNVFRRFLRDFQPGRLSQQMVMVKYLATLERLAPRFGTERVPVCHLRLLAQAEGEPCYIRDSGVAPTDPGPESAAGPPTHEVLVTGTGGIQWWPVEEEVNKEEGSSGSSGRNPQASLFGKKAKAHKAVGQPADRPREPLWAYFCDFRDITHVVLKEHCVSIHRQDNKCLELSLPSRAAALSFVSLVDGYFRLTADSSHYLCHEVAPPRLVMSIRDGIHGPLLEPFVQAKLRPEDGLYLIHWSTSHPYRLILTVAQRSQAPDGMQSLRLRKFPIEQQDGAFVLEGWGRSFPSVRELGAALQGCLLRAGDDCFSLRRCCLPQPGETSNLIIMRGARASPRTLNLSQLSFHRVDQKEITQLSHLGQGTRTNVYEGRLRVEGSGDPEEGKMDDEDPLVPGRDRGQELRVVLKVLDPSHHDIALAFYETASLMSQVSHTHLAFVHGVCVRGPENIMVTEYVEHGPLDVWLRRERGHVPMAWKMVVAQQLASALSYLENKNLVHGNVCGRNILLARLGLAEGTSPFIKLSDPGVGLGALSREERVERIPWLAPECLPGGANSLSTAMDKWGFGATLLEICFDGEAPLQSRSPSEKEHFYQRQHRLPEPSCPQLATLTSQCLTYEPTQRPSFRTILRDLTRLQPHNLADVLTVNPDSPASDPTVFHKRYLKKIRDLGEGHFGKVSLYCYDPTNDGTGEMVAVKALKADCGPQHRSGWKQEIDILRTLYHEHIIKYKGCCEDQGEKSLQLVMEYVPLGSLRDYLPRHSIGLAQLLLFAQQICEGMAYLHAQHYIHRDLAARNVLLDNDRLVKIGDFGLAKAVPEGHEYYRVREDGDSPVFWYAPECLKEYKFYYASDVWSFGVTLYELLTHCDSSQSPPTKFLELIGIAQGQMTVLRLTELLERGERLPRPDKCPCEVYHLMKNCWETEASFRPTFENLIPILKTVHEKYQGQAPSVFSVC
Chain of Tyrosine-protein kinase JAK1 (P23458 whole entry): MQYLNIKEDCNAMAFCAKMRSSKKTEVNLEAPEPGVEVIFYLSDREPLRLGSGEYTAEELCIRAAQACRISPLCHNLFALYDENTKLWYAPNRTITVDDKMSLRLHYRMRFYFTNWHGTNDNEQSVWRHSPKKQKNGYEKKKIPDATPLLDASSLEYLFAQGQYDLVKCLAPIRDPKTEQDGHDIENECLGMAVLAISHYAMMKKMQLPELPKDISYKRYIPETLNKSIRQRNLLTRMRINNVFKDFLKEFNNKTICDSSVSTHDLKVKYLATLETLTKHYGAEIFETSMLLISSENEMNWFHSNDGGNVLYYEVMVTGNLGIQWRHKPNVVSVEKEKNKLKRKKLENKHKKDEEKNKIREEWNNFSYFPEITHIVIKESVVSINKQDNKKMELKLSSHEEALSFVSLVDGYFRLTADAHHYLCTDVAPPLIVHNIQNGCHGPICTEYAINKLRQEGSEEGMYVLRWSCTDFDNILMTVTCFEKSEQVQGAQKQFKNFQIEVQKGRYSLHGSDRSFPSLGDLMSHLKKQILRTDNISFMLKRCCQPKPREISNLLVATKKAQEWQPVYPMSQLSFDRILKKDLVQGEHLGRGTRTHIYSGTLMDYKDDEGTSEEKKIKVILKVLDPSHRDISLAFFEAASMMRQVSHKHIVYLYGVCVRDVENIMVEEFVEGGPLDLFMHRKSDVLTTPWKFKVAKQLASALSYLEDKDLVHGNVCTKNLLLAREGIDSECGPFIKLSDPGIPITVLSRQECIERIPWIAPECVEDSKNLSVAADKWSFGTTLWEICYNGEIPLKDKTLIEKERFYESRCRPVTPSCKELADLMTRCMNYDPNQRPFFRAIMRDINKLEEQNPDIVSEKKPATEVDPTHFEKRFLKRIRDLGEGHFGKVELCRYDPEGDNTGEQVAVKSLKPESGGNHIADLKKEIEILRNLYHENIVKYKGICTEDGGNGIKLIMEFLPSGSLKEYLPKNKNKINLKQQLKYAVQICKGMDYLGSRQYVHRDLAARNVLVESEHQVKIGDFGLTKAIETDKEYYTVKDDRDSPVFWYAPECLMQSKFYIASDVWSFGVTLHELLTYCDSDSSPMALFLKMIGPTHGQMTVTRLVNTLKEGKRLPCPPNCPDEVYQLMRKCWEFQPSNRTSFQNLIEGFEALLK

Structure (SMILES): O=C1CCN(c2ncc(C(F)(F)F)c(C3=C(c4c[nH]c5ccccc45)C(=O)NC3=O)n2)CC1
- IC50 [1]: 0.253 µM
- IC50 [2]: 0.33 µM
- IC50 [3]: 4.33 µM

Structure (SMILES): CC(C)(O)C(=O)N1CCN(c2ccc(C(F)(F)F)c(C3=C(c4c[nH]c5ccccc45)C(=O)NC3=O)c2)CC1
- IC50 [4]: 0.013 µM
- IC50 [5]: 0.068 µM
- IC50 [6]: 0.003 µM
- IC50 [7]: 1.29 µM
- Drug uptake (Jurkat [8]): 2.4 pmol
- Drug uptake (Jurkat [9]): 7.88 pmol
- Drug uptake (Jurkat [10]): 23.48 pmol
- Drug uptake (Jurkat [11]): 55.58 pmol
- Drug uptake (CTLL [12]): 3.12 pmol
- Drug uptake (CTLL [13]): 10.97 pmol
- Drug uptake (CTLL [14]): 31.27 pmol
- Drug uptake (CTLL [15]): 64.33 pmol
- IC50 (Jurkat [16]): 0.689 µM
- Papp A→B (in vitro): 3 ×10⁻⁶ cm/s

Structure (SMILES): O=C1NC(=O)C(c2c[nH]c3ccccc23)=C1c1cc(F)ccc1C(F)(F)F
- IC50 [17]: > 10 µM
- IC50 [1]: > 10 µM
- IC50 [2]: > 10 µM
- IC50 [3]: > 10 µM

Structure (SMILES): O=C1NC(=O)C(c2c[nH]c3ccccc23)=C1c1cc(N2CCNCC2)ccc1C(F)(F)F
- IC50 [17]: 0.133 µM
- IC50 [1]: 0.737 µM
- IC50 [2]: 4.7 µM
- IC50 [3]: > 10 µM

Structure (SMILES): CN(C)c1ccc(C(F)(F)F)c(C2=C(c3c[nH]c4ccccc34)C(=O)NC2=O)c1
- IC50 [17]: 0.423 µM
- IC50 [1]: 4.7 µM
- IC50 [2]: 9.15 µM
- IC50 [3]: > 10 µM

Structure (SMILES): O=CN1CCN(c2ccc(C(F)(F)F)c(C3=C(c4c[nH]c5ccccc45)C(=O)NC3=O)c2)CC1
- IC50 [17]: 0.036 µM
- IC50 [1]: 0.754 µM
- IC50 [2]: 1.44 µM
- IC50 [3]: 5.04 µM

Structure (SMILES): O=C1NC(=O)C(c2c[nH]c3ccccc23)=C1c1cc(N2CCOCC2)ccc1C(F)(F)F
- IC50 [17]: 0.46 µM
- IC50 [1]: 6.5 µM
- IC50 [2]: > 10 µM
- IC50 [3]: > 10 µM
